Assay results published in patent US11684676B2, “Site-specific antibody-drug conjugates by ADP-ribosyl cyclases” (University of Southern California, priority 2020, dated 2023).

System: CD38 C-fusion IgG
Assay: Inactivation of CD38 C-fusion IgG by 2′-Cl-araNAD+-N3
Format: biochemical, human
Conditions: CD38 C-fusion IgG 2 nM, NGD+ 100 μM
From the text: The formation of cyclic GDP-ribose was monitored by a Synergy H1 plate reader (Biotek, VT) under the kinetic mode with excitation wavelength set at 300 nm and emission wavelength at 410 nm.

**Q.** `[N-]=[N+]=NCCCNc1ncnc2c1ncn2[C@@H]1O[C@H](COP(=O)(O)OP(=O)([O-])OC[C@H]2O[C@@H]([n+]3cccc(C(N)=O)c3)[C@@H](Cl)[C@@H]2O)[C@@H](O)[C@H]1O` [2′-Cl-araNAD^+-N3, 1-((2R,3S,4R,5R)-5-((((((((2R,3S,4R,5R)-5-(6-((3-azidopropyl)amino)-9H-purin-9-yl)-3,4-dihydroxytetrahydrofuran-2-yl)methoxy)(hydroxy)phosphoryl)oxy)oxidophosphoryl)oxy)methyl)-3-chloro-4-hydroxytetrahydrofuran-2-yl)-3-carbamoylpyridin-1-ium] was tested. Which kinact did it give?
**A.** 0.0039 ± 0.0007 s⁻¹
